Experimental data as given in patent publication EP4678638A1, “NEW E3 UBIQUITIN LIGASE LIGAND, PROTEIN DEGRADATION AGENT AND USE THEREOF” (priority 2023, dated 2024).

How the values were obtained:
[1] = target: T1, ALK (Homo sapiens, UniProt Q96SW2+Q9HC35+Q9UM73); test: Western blot degradation of ALK (H2228 Cell); type: cell-based; conditions: Table D5
T1 construct: evaluate the effects of the compounds of the present disclosure on the expression of target proteins in cells; endogenous in cells; host or cells: H2228
Procedure: Conventional Western blot assay was performed to evaluate the effects of the compounds of the present disclosure on the expression of target proteins in cells.
(1) Cell Seeding and Protein Harvesting: The selected cells were processed according to the cell seeding procedure and protein harvesting procedure in Table III-2. Table III-2 Cell Seeding and Protein Harvesting Procedures
(2) To the collected supernatant, 5X SDS sample loading buffer was added, followed by denaturation at 95°C for 5 minutes. The denatured samples were then separated by SDS-PAGE electrophoresis on a polyacrylamide gel. Proteins were transferred to a nitrocellulose membrane (0.45 µm NC membrane), blocked with blocking buffer at room temperature for 1 hour, and subjected to antibody incubation and development procedures according to the antibody manufacturer's instructions (Cell Signaling Technology).
Half-Maximal Degradation Concentration value (the drug concentration required for degrading proteins by 50%, abbreviated as DC50) reads method: comparing the grayscale values of Western blot bands from drug-treated samples with those from blank DMSO-treated controls, and identifying the drug concentration range at which the grayscale value is half that of the DMSO-treated control bands.
DC50 values can be calculated using ImageJ software to measure grayscale values of Western blot bands from drug-treated samples. The concentration-response curve is fitted to estimate the drug concentration corresponding to half the grayscale value.
Target protein remaining (%) refers to the percentage of target protein remaining in hPBMC cells after treatment with protein degrader compounds.
Calculation method for target protein remaining (%): Use ImageJ software to measure grayscale values of Western blot bands from drug (protein degrader)-treated samples. The grayscale value of drug-treated bands is divided by that of internal control protein bands, and the resulting quotient is normalized to obtain the relative percentage of remaining target protein after protein degrader treatment.
Target protein degradation rate (%) = 100% - target protein remaining (%).

[2] = system: SR; test: CCK-8 proliferation, SR; type: cell-based, Human; conditions: Homo sapiens; Table B6, compounds designed based on the ALK inhibitors; SR cells; read-out: Inhibitory activity (IC50, nM) on tumor cell proliferation, SR
Procedure, shortened: (§1)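 Cells seeded, then after 24 h treated with 10 concentrations (top 10 µM, 5-fold serial dilution) for a line-specific time at 37°C, 5% CO2. Viability read by CCK-8; IC50 fitted from growth-inhibition curves.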

[3] = target: T2, human Cereblon WT GST-tagged protein (Homo sapiens, UniProt Q96SW2); test: CRBN binding, HTRF (CEREBLON BINDING kit); conditions: Table II-2, CRBN binding screening, HTRF; for inhibition at 0.5 µM: read-out: Inhibition rate (%) at 0.5µM; for inhibition at 2 µM: read-out: Inhibition rate (%) at 2 µM
T2 construct: purchased CISBIO 64BDCRBNPEH
Procedure, shortened: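 After 3 h at room temperature, emission at 665 and 620 nm was measured in a homogeneous time-resolved fluorescence format. Compounds competed with a Thalidomide-Re probe for GST-tagged wild-type human CRBN, which was labelled with a Eu anti-GST antibody.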

[4] = system: H1975; test: CCK-8 proliferation, NCI-H1975 (H1975); type: cell-based, Human; conditions: Homo sapiens, NCI-H1975; Table B6, compounds designed based on the ALK inhibitors; H1975 cells; read-out: Inhibitory activity (IC50, nM) on tumor cell proliferation, H1975
Procedure, shortened: as §1

T2 sequence (Q96SW2 whole entry): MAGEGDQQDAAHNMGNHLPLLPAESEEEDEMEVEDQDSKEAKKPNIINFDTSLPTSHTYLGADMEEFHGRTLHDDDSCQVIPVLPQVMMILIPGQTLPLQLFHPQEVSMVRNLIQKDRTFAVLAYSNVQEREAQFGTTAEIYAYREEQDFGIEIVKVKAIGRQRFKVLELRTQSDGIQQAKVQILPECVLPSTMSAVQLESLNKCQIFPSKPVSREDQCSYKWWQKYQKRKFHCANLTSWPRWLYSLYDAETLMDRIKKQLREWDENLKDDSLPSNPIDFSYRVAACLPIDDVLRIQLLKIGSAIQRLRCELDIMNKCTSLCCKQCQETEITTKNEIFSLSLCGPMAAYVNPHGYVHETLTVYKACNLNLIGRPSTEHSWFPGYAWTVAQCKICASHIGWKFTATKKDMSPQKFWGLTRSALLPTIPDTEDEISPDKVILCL
T1 sequence (Q9HC35+Q9UM73 fused): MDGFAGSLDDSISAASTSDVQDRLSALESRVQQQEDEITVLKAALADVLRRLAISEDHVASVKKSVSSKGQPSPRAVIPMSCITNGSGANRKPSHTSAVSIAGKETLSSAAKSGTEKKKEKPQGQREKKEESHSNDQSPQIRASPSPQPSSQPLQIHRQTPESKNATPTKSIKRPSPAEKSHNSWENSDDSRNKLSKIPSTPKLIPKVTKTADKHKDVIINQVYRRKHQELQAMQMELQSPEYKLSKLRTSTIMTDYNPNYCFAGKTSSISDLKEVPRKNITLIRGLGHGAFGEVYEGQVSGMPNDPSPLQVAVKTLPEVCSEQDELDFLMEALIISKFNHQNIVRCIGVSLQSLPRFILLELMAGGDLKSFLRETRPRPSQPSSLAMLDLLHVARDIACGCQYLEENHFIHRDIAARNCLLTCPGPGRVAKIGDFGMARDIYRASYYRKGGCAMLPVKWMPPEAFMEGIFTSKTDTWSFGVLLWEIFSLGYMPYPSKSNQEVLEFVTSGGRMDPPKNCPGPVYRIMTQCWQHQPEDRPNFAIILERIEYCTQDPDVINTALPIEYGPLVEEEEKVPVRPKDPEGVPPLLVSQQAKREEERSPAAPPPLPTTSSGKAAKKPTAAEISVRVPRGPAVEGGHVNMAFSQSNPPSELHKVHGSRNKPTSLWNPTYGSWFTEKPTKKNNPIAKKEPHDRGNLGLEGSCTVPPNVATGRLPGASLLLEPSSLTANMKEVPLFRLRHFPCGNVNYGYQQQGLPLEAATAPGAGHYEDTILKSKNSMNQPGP
T1 sequence (Q96SW2 whole entry): as the sequence (Q96SW2 whole entry) above
T1 sequence (Q16531 whole entry partner): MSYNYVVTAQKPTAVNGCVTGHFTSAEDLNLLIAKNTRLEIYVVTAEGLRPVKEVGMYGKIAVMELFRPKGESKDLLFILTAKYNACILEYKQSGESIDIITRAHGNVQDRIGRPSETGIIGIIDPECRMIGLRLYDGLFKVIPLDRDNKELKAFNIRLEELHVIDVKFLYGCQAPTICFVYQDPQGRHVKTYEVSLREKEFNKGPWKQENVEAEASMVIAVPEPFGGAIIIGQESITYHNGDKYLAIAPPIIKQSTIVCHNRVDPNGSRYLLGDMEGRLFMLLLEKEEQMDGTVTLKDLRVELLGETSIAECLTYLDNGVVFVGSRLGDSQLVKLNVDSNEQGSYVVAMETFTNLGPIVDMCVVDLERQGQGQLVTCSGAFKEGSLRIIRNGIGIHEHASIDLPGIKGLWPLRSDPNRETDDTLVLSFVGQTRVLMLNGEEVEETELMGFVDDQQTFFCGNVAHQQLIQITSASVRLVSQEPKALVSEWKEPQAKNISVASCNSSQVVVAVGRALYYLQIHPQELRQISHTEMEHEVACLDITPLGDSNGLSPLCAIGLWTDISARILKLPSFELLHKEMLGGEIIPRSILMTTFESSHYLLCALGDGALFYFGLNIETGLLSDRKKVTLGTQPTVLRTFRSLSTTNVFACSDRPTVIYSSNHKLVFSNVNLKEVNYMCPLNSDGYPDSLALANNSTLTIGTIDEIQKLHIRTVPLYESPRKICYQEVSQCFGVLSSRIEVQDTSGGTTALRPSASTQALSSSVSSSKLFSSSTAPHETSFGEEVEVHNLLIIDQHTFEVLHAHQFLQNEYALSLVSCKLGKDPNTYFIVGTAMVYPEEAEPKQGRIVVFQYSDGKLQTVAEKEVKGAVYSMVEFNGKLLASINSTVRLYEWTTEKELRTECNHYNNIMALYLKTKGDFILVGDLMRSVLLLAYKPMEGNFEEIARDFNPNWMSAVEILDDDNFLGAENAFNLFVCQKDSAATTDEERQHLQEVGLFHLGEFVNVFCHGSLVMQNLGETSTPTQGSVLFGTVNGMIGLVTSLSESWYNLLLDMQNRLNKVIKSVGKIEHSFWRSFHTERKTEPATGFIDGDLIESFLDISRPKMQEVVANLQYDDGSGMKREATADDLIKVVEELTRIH

Compound	Degradation of substrate protein ALK (substrate protein remaining %) [1]	further results
CCc1cc2c(cc1N1CCN(Cc3ccnc(N4CCC(=O)NC4=O)c3)CC1)C(C)(C)c1[nH]c3cc(C#N)ccc3c1C2=O [GT-07834, 8-(4-((2-(2,4-dioxotetrahydropyrimidin-1(2H)-yl)pyridin-4-yl)methyl)piperazin-1-yl)-9-ethyl-6,6-dimethyl-11-oxo-6,11-dihydro-5H-benzo[b]carbazole-3-carbonitrile]	A (A is defined as 0% ≤ substrate protein remaining % ≤ 80%)	–
CCc1cc2c(cc1N1CCN(Cc3cncc(N4CCC(=O)NC4=O)c3)CC1)C(C)(C)c1[nH]c3cc(C#N)ccc3c1C2=O [GT-07835, 8-(4-((5-(2,4-dioxotetrahydropyrimidin-1(2H)-yl)pyridin-3-yl)methyl)piperazin-1-yl)-9-ethyl-6,6-dimethyl-11-oxo-6,11-dihydro-5H-benzo[b]carbazole-3-carbonitrile]	A (A is defined as 0% ≤ substrate protein remaining % ≤ 80%)	–
CCc1cc2c(cc1N1CCN(Cc3cc(C4CCC(=O)NC4=O)cnc3F)CC1)C(C)(C)c1[nH]c3cc(C#N)ccc3c1C2=O (stereo not drawn) [GT-07836, 8-(4-((5-(2,6-dioxopiperidin-3-yl)-2-fluoropyridin-3-yl)methyl)piperazin-1-yl)-9-ethyl-6,6-dimethyl-11-oxo-6,11-dihydro-5H-benzo[b]carbazole-3-carbonitrile]	A (A is defined as 0% ≤ substrate protein remaining % ≤ 80%)	–
COc1cc(N2CCC(N(C)Cc3cnc(N4CCC(=O)NC4=O)cn3)CC2)ccc1Nc1ncc(Cl)c(Nc2ccccc2P(C)(C)=O)n1 [GT-07751, 1-(5-(((1-(4-((5-chloro-4-((2-(dimethylphosphoryl)phenyl)amino)pyrimidin-2-yl)amino)-3-methoxyphenyl)piperidin-4-yl)(methyl)amino)methyl)pyrazin-2-yl)dihydropyrimidine-2,4(1H,3H)-dione]	A (A is defined as 0% ≤ substrate protein remaining % ≤ 80%)	–
COc1cc(N2CCN(Cc3cnc(N4CCC(=O)NC4=O)cn3)CC2)ccc1Nc1ncc(Cl)c(Nc2ccccc2P(C)(C)=O)n1 [GT-07749, 1-(5-((4-(4-((5-chloro-4-((2-(dimethylphosphoryl)phenyl)amino)pyrimidin-2-yl)amino)-3-methoxyphenyl)piperazin-1-yl)methyl)pyrazin-2-yl)dihydropyrimidine-2,4(1H,3H)-dione]	A (A is defined as 0% ≤ substrate protein remaining % ≤ 80%)	–
Cc1cc(Nc2ncc(Cl)c(Nc3ccccc3S(=O)(=O)C(C)C)n2)c(OC(C)C)cc1C1CCN(Cc2cnc(N3CCC(=O)NC3=O)cn2)CC1 [GT-07758, 1-(5-((4-(4-((5-chloro-4-((2-(isopropylsulfonyl)phenyl)amino)pyrimidin-2-yl)amino)-5-isopropoxy-2-methylphenyl)piperidin-1-yl)methyl)pyrazin-2-yl)dihydropyrimidine-2,4(1H,3H)-dione]	A (A is defined as 0% ≤ substrate protein remaining % ≤ 80%)	–
CCc1cc2c(cc1N1CCC(N3CCN(Cc4cnc(N5CCC(=O)NC5=O)cn4)CC3)CC1)C(C)(C)c1[nH]c3cc(C#N)ccc3c1C2=O [GT-07756, 8-(4-(4-((5-(2,4-dioxotetrahydropyrimidin-1(2H)-yl)pyrazin-2-yl)methyl)piperazin-1-yl)piperidin-1-yl)-9-ethyl-6,6-dimethyl-11-oxo-6,11-dihydro-5H-benzo[b]carbazole-3-carbonitrile]	A (A is defined as 0% ≤ substrate protein remaining % ≤ 80%)	–
CCc1cc2c(cc1N1CCC(N3CCN(Cc4cc(N5CCC(=O)NC5=O)cnc4F)CC3)CC1)C(C)(C)c1[nH]c3cc(C#N)ccc3c1C2=O [GT-07755, 8-(4-(4-((5-(2,4-dioxotetrahydropyrimidin-1(2H)-yl)-2-fluoropyridin-3-yl)methyl)piperazin-1-yl)piperidin-1-yl)-9-ethyl-6,6-dimethyl-11-oxo-6,11-dihydro-5H-benzo[b]carbazole-3-carbonitrile]	A (A is defined as 0% ≤ substrate protein remaining % ≤ 80%)	–
COc1cc(N2CCN(Cc3ccc(C4CCC(=O)NC4=O)cc3)CC2)ccc1Nc1ncc(Cl)c(Nc2ccccc2P(C)(C)=O)n1 (stereo not drawn) [GT-03781, 3-(4-((4-(4-((5-chloro-4-((2-(dimethylphosphoryl)phenyl)amino)pyrimidin-2-yl)amino)-3-methoxyphenyl)piperazin-1-yl)methyl)phenyl)piperidine-2,6-dione]	A (A is defined as 0% ≤ substrate protein remaining % ≤ 80%)	IC50 [2]: 1 to 10 nM; inhibition at 0.5 µM [3]: 40 to 53%; inhibition at 2 µM [3]: 60 to 80%; IC50 [4]: 500 to 1000 nM
CCc1cc2c(cc1N1CCC(N3CCN(Cc4ncc(N5CCC(=O)NC5=O)cc4F)CC3)CC1)C(C)(C)c1[nH]c3cc(C#N)ccc3c1C2=O [GT-07924, 8-(4-(4-((5-(2,4-dioxotetrahydropyrimidin-1(2H)-yl)-3-fluoropyridin-2-yl)methyl)piperazin-1-yl)piperidin-1-yl)-9-ethyl-6,6-dimethyl-11-oxo-6,11-dihydro-5H-benzo[b]carbazole-3-carbonitrile]	A (A is defined as 0% ≤ substrate protein remaining % ≤ 80%)	–
COc1cc(N2CCN(Cc3cc(N4CCC(=O)NC4=O)cnc3F)CC2)ccc1Nc1ncc(Cl)c(Nc2ccccc2P(C)(C)=O)n1 [GT-07748, 1-(5-((4-(4-((5-chloro-4-((2-(dimethylphosphoryl)phenyl)amino)pyrimidin-2-yl)amino)-3-methoxyphenyl)piperazin-1-yl)methyl)-6-fluoropyridin-3-yl)dihydropyrimidine-2,4(1H,3H)-dione]	A (A is defined as 0% ≤ substrate protein remaining % ≤ 80%)	–
COc1cc(N2CCC(N(C)Cc3cc(N4CCC(=O)NC4=O)cnc3F)CC2)ccc1Nc1ncc(Cl)c(Nc2ccccc2P(C)(C)=O)n1 [GT-07750, 1-(5-(((1-(4-((5-chloro-4-((2-(dimethylphosphoryl)phenyl)amino)pyrimidin-2-yl)amino)-3-methoxyphenyl)piperidin-4-yl)(methyl)amino)methyl)-6-fluoropyridin-3-yl)dihydropyrimidine-2,4(1H,3H)-dione]	A (A is defined as 0% ≤ substrate protein remaining % ≤ 80%)	–
CCc1cc2c(cc1N1CCN(Cc3cc(N4CCC(=O)NC4=O)ncc3F)CC1)C(C)(C)c1[nH]c3cc(C#N)ccc3c1C2=O [GT-07833, 8-(4-((2-(2,4-dioxotetrahydropyrimidin-1(2H)-yl)-5-fluoropyridin-4-yl)methyl)piperazin-1-yl)-9-ethyl-6,6-dimethyl-11-oxo-6,11-dihydro-5H-benzo[b]carbazole-3-carbonitrile]	A (A is defined as 0% ≤ substrate protein remaining % ≤ 80%)	–
COc1cc(N2CCN(Cc3ccc(C4CCC(=O)NC4=O)c(F)c3)CC2)ccc1Nc1ncc(Cl)c(Nc2ccccc2P(C)(C)=O)n1 (stereo not drawn) [GT-03782, 3-(4-((4-(4-((5-chloro-4-((2-(dimethylphosphoryl)phenyl)amino)pyrimidin-2-yl)amino)-3-methoxyphenyl)piperazin-1-yl)methyl)-2-fluorophenyl)piperidine-2,6-dione]	A (A is defined as 0% ≤ substrate protein remaining % ≤ 80%)	IC50 [2]: 10 to 50 nM; inhibition at 0.5 µM [3]: 40 to 53%; inhibition at 2 µM [3]: 80 to 100%
